Reference: US6274715A, “Tricyclic erythromycin derivatives” (priority 1997, dated 2001)
In brackets after ≈: the same amount, converted by molar mass.

Legend:
Type in all cases: cell-based
[1] = system: STAPHYLOCOCCUS AUREUS 1775; assay: In vitro antibacterial activity, MIC, BHI agar dilution; details: S. aureus 1775, unit assumed
ESCHERICHIA COLI KNK 437 = details: E. coli KNK 437; BHI agar; unit assumed
[2] = system: STAPHYLOCOCCUS AUREUS ATCC 6538P; assay: In vitro antibacterial activity, MIC, BHI agar dilution; details: S. aureus ATCC 6538P, 35-37° C., 20 to 24 hours, unit assumed
[3] = system: ENTEROBACTER AEROGENES ATCC 13048; assay: as above; details: E. aerogenes ATCC 13048, unit assumed
CANDIDA ALBICANS CCH 442 = assay: as above; details: C. albicans CCH 442, unit assumed
[4] = system: KLEBSIELLA PNEUMONIAE ATCC 8045; assay: as above; details: K. pneumoniae ATCC 8045, unit assumed
[5] = system: PSEUDOMONAS AERUGINOSA DPHD-2862; assay: as above; details: P. aeruginosa DPHD-2862, unit assumed
[6] = system: STAPHYLOCOCCUS AUREUS CMX 642A; assay: as above; details: S. aureus CMX 642A, unit assumed
ESCHERICHIA COLI DC-2 = assay: as above; details: E. coli DC-2, unit assumed
EN[…] ATCC 8043 = assay: as above; details: E. faecium ATCC 8043, unit assumed
Method in brief: (§1)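 MIC was read visually as the lowest drug level with no growth, a slight haze or sparsely isolated colonies relative to a compound-free growth control. Organisms were spotted at 1:100 dilution (1:10 for slow-growing strains) onto Brain Heart Infusion agar containing serial compound dilutions and incubated 20 to 24 hours at 35-37° C.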

STR[…] 508 = assay: as above; details: S. agalactiae CMX 508, unit assumed
Method in brief: as §1

M[…] ATCC 4698 = assay: as above; details: M. luteus ATCC 4698, unit assumed
Method in brief: as §1

M[…] ATCC 9341 = assay: as above; details: M. luteus ATCC 9341, unit assumed
Method in brief: as §1

[7] = system: STAPHYLOCOCCUS AUREUS A5177; assay: as above; details: S. aureus A5177, unit assumed
[8] = system: STAPHYLOCOCCUS AUREUS NCTC10649M; assay: as above; details: S. aureus NCTC10649M, unit assumed
[9] = system: PSEUDOMONAS AERUGINOSA 5007; assay: as above; details: P. aeruginosa 5007, unit assumed
[10] = system: PSEUDOMONAS AERUGINOSA K799/61; assay: as above; details: P. aeruginosa K799/61, unit assumed
[11] = system: STREPTOCOCCUS PYOGENES 930; assay: as above; details: S. pyogenes 930, unit assumed
[12] = system: PROVIDENCIA STUARTII CMX 640; details: P. stuartii CMX 640; BHI agar; unit assumed
ESCHERICHIA COLI SS = assay: In vitro antibacterial activity, MIC, BHI agar dilution; details: E. coli SS, unit assumed
[13] = system: PSEUDOMONAS AERUGINOSA BMH10; assay: as above; details: P. aeruginosa BMH10, unit assumed
[14] = system: STREPTOCOCCUS BOVIS A-5169; assay: as above; details: S. bovis A-5169, unit assumed
[15] = system: MYCOBACTERIUM SMEGMATIS ATCC 114; assay: as above; details: M. smegmatis ATCC 114, unit assumed
[16] = system: STAPHYLOCOCCUS AUREUS A-5278; assay: as above; details: S. aureus A-5278, unit assumed
[17] = system: STREPTOCOCCUS PYOGENES PIU 2548; assay: as above; details: S. pyogenes PIU 2548, unit assumed
[18] = system: STAPHYLOCOCCUS AUREUS CMX 553; assay: as above; details: S. aureus CMX 553, unit assumed
PSEUDOMONAS CEPACIA 296I = assay: as above; details: P. cepacia 296I, unit assumed
[19] = system: STREPTOCOCCUS PYOGENES EES61; assay: as above; details: S. pyogenes EES61, unit assumed
ESCHERICHIA COLI JUHL = details: E. coli JUHL; BHI agar; unit assumed
[20] = system: STAPHYLOCOCCUS EPIDERMIDIS 3519; details: S. epidermidis 3519; BHI agar; unit assumed
[21] = system: PSEUDOMONAS AERUGINOSA K799/WT; assay: In vitro antibacterial activity, MIC, BHI agar dilution; details: P. aeruginosa K799/WT, unit assumed
ESCHERICHIA COLI H560 = assay: as above; details: E. coli H560, unit assumed
[22] = system: PSEUDOMONAS AERUGINOSA DPHD-5263; assay: as above; details: P. aeruginosa DPHD-5263, unit assumed

SMILES | MIC [1] | MIC (ESCHERICHIA COLI KNK 437) | MIC [2] | MIC [3] | MIC (CANDIDA ALBICANS CCH 442) | MIC [4] | MIC [5] | MIC [6] | MIC (ESCHERICHIA COLI DC-2) | MIC (EN[…] ATCC 8043) | MIC (STR[…] 508) | MIC (M[…] ATCC 4698) | MIC (M[…] ATCC 9341) | MIC [7] | MIC [8] | MIC [9] | MIC [10] | MIC [11] | MIC [12] | MIC (ESCHERICHIA COLI SS) | further results
CC[C@H]1OC(=O)[C@H](C)C(=O)[C@H](C)[C@@H](O[C@@H]2O[C@H](C)C[C@H](N(C)C)[C@H]2O)[C@](C)(OC)C[C@@H](C)C2=NC3CN(CC(OC)OC)CC3N3C(=O)O[C@@]1(C)[C@H]3[C@H]2C (stereo partly drawn) [Example 127] | > 100 µg/mL | > 100 µg/mL | 3.1 µg/mL (≈ 4.04 µM) | > 100 µg/mL | > 100 µg/mL | > 100 µg/mL | > 100 µg/mL | 3.1 µg/mL (≈ 4.04 µM) | > 100 µg/mL | 0.39 µg/mL (≈ 0.508 µM) | 0.2 µg/mL (≈ 0.261 µM) | 1.56 µg/mL (≈ 2.03 µM) | 0.39 µg/mL (≈ 0.508 µM) | 1.56 µg/mL (≈ 2.03 µM) | 1.56 µg/mL (≈ 2.03 µM) | > 100 µg/mL | 3.1 µg/mL (≈ 4.04 µM) | > 100 µg/mL | > 100 µg/mL | 1.56 µg/mL (≈ 2.03 µM) | MIC [13]: > 100 µg/mL; MIC [14]: 0.1 µg/mL (≈ 0.13 µM); MIC [15]: 25 µg/mL (≈ 32.6 µM); MIC [16]: > 100 µg/mL; MIC [17]: 1.56 µg/mL (≈ 2.03 µM); MIC [18]: 1.56 µg/mL (≈ 2.03 µM); MIC (PSEUDOMONAS CEPACIA 296I): > 100 µg/mL; MIC [19]: 0.1 µg/mL (≈ 0.13 µM); MIC (ESCHERICHIA COLI JUHL): > 100 µg/mL; MIC [20]: 1.56 µg/mL (≈ 2.03 µM); MIC [21]: > 100 µg/mL; MIC (ESCHERICHIA COLI H560): > 100 µg/mL; MIC [22]: > 100 µg/mL
CC[C@H]1OC(=O)[C@H](C)C(=O)[C@H](C)[C@@H](O[C@@H]2O[C@H](C)C[C@H](N(C)C)[C@H]2O)[C@](C)(OC)C[C@@H](C)C2=NCC(CN(C)Cc3ccccc3)N3C(=O)O[C@@]1(C)[C@H]3[C@H]2C (stereo partly drawn) [Example 132] | 100 µg/mL (≈ 130 µM) | > 100 µg/mL | 0.39 µg/mL (≈ 0.506 µM) | > 100 µg/mL | > 100 µg/mL | > 100 µg/mL | > 100 µg/mL | 0.39 µg/mL (≈ 0.506 µM) | 100 µg/mL (≈ 130 µM) | 0.1 µg/mL (≈ 0.13 µM) | 0.02 µg/mL (≈ 0.0259 µM) | 0.2 µg/mL (≈ 0.259 µM) | 0.05 µg/mL (≈ 0.0649 µM) | 0.39 µg/mL (≈ 0.506 µM) | 0.39 µg/mL (≈ 0.506 µM) | > 100 µg/mL | 1.56 µg/mL (≈ 2.02 µM) | 50 µg/mL (≈ 64.9 µM) | > 100 µg/mL | 0.78 µg/mL (≈ 1.01 µM) | MIC [13]: > 100 µg/mL; MIC [14]: 0.01 µg/mL (≈ 0.013 µM); MIC [15]: 0.78 µg/mL (≈ 1.01 µM); MIC [16]: 100 µg/mL (≈ 130 µM); MIC [17]: 0.78 µg/mL (≈ 1.01 µM); MIC [18]: 0.39 µg/mL (≈ 0.506 µM); MIC (PSEUDOMONAS CEPACIA 296I): > 100 µg/mL; MIC [19]: 0.02 µg/mL (≈ 0.0259 µM); MIC (ESCHERICHIA COLI JUHL): 100 µg/mL (≈ 130 µM); MIC [20]: 0.39 µg/mL (≈ 0.506 µM); MIC [21]: 100 µg/mL (≈ 130 µM); MIC (ESCHERICHIA COLI H560): 50 µg/mL (≈ 64.9 µM); MIC [22]: > 100 µg/mL
CCC1OC(=O)C(C)C(=O)C(C)C(OC2OC(C)CC(N(C)C)C2O)C(C)(OC)CC(C)C2=NCC(C)(CN(C)Cc3ccccc3)N3C(=O)OC1(C)C3C2C (stereo not drawn) [Example 134] | > 100 µg/mL | > 100 µg/mL | 0.78 µg/mL (≈ 0.994 µM) | > 100 µg/mL | > 100 µg/mL | > 100 µg/mL | > 100 µg/mL | 0.78 µg/mL (≈ 0.994 µM) | 100 µg/mL (≈ 127 µM) | 0.1 µg/mL (≈ 0.127 µM) | 0.02 µg/mL (≈ 0.0255 µM) | 0.78 µg/mL (≈ 0.994 µM) | 0.05 µg/mL (≈ 0.0637 µM) | 0.78 µg/mL (≈ 0.994 µM) | 0.78 µg/mL (≈ 0.994 µM) | > 100 µg/mL | 1.56 µg/mL (≈ 1.99 µM) | > 100 µg/mL | > 100 µg/mL | 1.56 µg/mL (≈ 1.99 µM) | MIC [13]: > 100 µg/mL; MIC [14]: 0.01 µg/mL (≈ 0.0127 µM); MIC [15]: 0.78 µg/mL (≈ 0.994 µM); MIC [16]: > 100 µg/mL; MIC [17]: 0.78 µg/mL (≈ 0.994 µM); MIC [18]: 0.78 µg/mL (≈ 0.994 µM); MIC (PSEUDOMONAS CEPACIA 296I): > 100 µg/mL; MIC [19]: 0.02 µg/mL (≈ 0.0255 µM); MIC (ESCHERICHIA COLI JUHL): 100 µg/mL (≈ 127 µM); MIC [20]: 0.78 µg/mL (≈ 0.994 µM); MIC [21]: > 100 µg/mL; MIC (ESCHERICHIA COLI H560): 50 µg/mL (≈ 63.7 µM); MIC [22]: > 100 µg/mL
